How the values were obtained:
hTRPA1 channel = hTRPA1 channel (Homo sapiens, UniProt O75762); assay: Inhibition of TRPA1 channel activity; assay type: cell-based; settings: procedure similar to WO 2007/073505; read-out: IC50 against hTRPA1 channel activity
Description: Compound 1 was tested using a procedure similar to the procedure outlined in WO 2007/073505.

[1] = system: formalin-induced pain behavior; assay: Formalin-induced pain behavior in rats; assay type: in vivo, rat; settings: 50 mg/kg oral, one hour prior to intraplantar formalin (3%), observed for 2 minutes following injection
Description: Compound 1 was tested in the formalin-induced pain test reported by Dubuisson et al., Pain 1977 December; 4(2):161-74. The compound was dosed orally in rats (8 animals) at 50 mg/kg, one hour prior to intraplantar formalin (3%) injection. The control group (8 animals) received vehicle (30% Captisol® in water, pH 10). […] The duration of pain behavior in the treated animals was reduced by about 30%, compared to the animals who received vehicle.

[2] = system: AITC-induced pain behavior; assay: AITC-induced pain behavior (automated flinch detecting system) in the rat; assay type: in vivo; settings: 50 mg/kg oral gavage
Description: Compound 1 was tested in the automated flinch detecting system described by Yaksh et al., J. Appl. Physiol 90: 2386-2402 (2001). A small metal band was loosely placed around each rat's left hind paw. The fasted rats were dosed (50 mg/kg) via oral gavage with Compound 1 (8 animals) or vehicle (8 animals, 30% Captisol® in water, pH 10). The rats were acclimatized in the test chamber prior to allyl isothiocyanate (AITC) administration. AITC was then injected into the paw of each animal, and the animal was promptly returned to the chamber. The number of paw flinches was monitored for 60 minutes. After 10 minutes, animals receiving vehicle flinched a total of about 350 times, while the treated animals flinched about 200 times. After 60 minutes the animals that had received vehicle prior to AITC administration flinched about 1950 times, while the compound pre-treated animals flinched about 1000 times.

Chain of hTRPA1 channel (O75762 whole entry): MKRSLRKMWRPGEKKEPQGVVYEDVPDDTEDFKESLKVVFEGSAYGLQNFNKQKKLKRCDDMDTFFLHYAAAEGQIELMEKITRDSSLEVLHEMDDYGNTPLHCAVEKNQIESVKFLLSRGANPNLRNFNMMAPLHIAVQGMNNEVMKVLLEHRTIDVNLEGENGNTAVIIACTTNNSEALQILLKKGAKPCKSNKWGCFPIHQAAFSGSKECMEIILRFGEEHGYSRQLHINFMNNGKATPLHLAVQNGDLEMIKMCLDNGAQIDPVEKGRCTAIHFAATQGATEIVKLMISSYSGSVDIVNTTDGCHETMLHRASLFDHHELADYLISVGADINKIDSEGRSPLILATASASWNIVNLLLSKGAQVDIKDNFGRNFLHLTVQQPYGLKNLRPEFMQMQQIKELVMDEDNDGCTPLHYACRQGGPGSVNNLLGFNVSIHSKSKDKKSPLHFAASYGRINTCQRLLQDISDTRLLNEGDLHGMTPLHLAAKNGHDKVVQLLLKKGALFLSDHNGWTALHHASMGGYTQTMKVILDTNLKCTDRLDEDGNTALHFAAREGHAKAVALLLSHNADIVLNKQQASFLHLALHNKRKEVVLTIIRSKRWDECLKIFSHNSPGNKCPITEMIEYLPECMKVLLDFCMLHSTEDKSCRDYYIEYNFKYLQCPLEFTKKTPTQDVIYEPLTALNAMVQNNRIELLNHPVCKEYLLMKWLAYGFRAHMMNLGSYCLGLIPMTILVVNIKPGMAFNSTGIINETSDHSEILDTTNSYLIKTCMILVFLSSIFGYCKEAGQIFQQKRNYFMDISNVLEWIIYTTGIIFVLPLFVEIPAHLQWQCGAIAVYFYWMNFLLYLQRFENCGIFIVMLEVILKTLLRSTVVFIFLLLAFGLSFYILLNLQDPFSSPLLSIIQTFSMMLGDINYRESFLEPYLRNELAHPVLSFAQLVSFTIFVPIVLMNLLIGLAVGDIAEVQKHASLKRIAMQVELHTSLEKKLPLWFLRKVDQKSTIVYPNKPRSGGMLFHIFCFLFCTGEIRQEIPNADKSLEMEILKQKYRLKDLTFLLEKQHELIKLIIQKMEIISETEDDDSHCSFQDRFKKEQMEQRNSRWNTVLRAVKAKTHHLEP

C[C@H]1CCCN1c1ccc(-c2csc(NC(=O)Cn3cnc4c3c(=O)n(C)c(=O)n4C)n2)cc1F [Compound 1]
IC50 (hTRPA1 channel): ~4 nM | reduction of duration of pain behavior compared to vehicle [1]: about 30% | total number of paw flinches after 10 minutes ([2]; fasted rats, AITC injected into paw, after 10 minutes (vehicle about 350)): about 200 times | total number of paw flinches after 60 minutes ([2]; fasted rats, AITC injected into paw, after 60 minutes (vehicle about 1950)): about 1000 times | effect on AITC-induced pain behavior ([2]; rats): able to reduce the AITC-induced pain behavior

— patent US9649315B2, “Composition useful for treating disorders related to TRPA1” (HYDRA BIOSCIENCES, INC., priority 2008, dated 2017)
